Test results taken from PubChem BioAssay AID743491 (The Scripps Research Institute Molecular Screening Center, 2014).
Active and inactive are the calls of the source. How the calls were made is not given here.

Each compound was assayed against Trace amine-associated receptor 1 (Homo sapiens) (UniProt Q96RJ0) (assay: activators of human TAAR1 signalling – cell-based, fluorescence, MedChem round 1, dose response (AID 743491)). Settings: cells expressing human TAAR1, fluorescence agonist read-out.
Chain of Trace amine-associated receptor 1 (Homo sapiens) (Q96RJ0 whole entry, looked up): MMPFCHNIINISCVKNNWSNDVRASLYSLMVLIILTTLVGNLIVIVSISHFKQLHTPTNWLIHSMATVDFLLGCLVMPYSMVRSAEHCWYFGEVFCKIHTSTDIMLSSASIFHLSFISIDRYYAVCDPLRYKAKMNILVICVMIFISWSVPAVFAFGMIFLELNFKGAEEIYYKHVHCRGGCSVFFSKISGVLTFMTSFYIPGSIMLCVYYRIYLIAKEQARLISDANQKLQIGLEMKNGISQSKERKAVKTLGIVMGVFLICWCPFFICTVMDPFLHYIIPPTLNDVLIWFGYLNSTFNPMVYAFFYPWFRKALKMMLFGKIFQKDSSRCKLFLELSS

Row | Structure (SMILES) | EC50
1 | CC(CN1CCCC1Cc1ccccc1)C(=O)c1ccc2c(c1)OCCO2 (stereo unspecified) | 678 nM
2 | Cc1ccc(C(=O)CCN2CCC(c3ccccc3)C2)cc1 (stereo unspecified) | 114 nM
3 | NC(=O)CCN1C[C@H](c2ccccc2)[C@@H]2[C@H]1C1CCN2CC1 | > 29900 nM (inactive)
4 | O=C(CCN1C[C@@H](C(=O)O)[C@H](c2cccc(F)c2)C1)NC1CC1 | > 29900 nM (inactive)
5 | O=C(CCN1C[C@@H](C(=O)O)[C@H](c2ccccc2)C1)NCc1cccs1 | > 29900 nM (inactive)
6 | O=C(CCN1C[C@@H](C(=O)O)[C@H](c2ccccc2)C1)NC1CCCC1 | > 29900 nM (inactive)
7 | O=C(CCN1CCC(c2ccccc2)C1)c1ccccc1 (stereo unspecified) | 174 nM

The next lines start with the values.

Row | EC50 | Structure (SMILES)
8 | > 29900 nM (inactive) | O=C(CCN1CCC(O)(c2ccccc2)C1)c1ccc2c(c1)OCCO2 (stereo unspecified)
9 | inactive | CC(CN1CCC(c2ccccc2)C1)C(=O)c1ccc2c(c1)OCCO2 (stereo unspecified)
10 | 378 nM | CC1CN(CCC(=O)c2ccc3c(c2)OCCO3)CC1c1ccccc1 (stereo unspecified)
11 | > 29900 nM (inactive) | O=C(CCN1CCC(O)(c2ccc(F)cc2)C1)c1ccc2c(c1)OCCO2 (stereo unspecified)
